Among the data in ChEMBL document CHEMBL1201862, “PubChem BioAssay data set” (2004) are IC50 values, retold here.

Activity calls are given as the source filed them. No stated cut-off is given here; in the data, actives have a measured IC50 and inactives only a lower limit.

By IC50 is commonly meant the concentration at which inhibition is half-maximal.

Envelope glycoprotein gp160, sequence (Q6QLK5 whole entry, the tested form may be a part): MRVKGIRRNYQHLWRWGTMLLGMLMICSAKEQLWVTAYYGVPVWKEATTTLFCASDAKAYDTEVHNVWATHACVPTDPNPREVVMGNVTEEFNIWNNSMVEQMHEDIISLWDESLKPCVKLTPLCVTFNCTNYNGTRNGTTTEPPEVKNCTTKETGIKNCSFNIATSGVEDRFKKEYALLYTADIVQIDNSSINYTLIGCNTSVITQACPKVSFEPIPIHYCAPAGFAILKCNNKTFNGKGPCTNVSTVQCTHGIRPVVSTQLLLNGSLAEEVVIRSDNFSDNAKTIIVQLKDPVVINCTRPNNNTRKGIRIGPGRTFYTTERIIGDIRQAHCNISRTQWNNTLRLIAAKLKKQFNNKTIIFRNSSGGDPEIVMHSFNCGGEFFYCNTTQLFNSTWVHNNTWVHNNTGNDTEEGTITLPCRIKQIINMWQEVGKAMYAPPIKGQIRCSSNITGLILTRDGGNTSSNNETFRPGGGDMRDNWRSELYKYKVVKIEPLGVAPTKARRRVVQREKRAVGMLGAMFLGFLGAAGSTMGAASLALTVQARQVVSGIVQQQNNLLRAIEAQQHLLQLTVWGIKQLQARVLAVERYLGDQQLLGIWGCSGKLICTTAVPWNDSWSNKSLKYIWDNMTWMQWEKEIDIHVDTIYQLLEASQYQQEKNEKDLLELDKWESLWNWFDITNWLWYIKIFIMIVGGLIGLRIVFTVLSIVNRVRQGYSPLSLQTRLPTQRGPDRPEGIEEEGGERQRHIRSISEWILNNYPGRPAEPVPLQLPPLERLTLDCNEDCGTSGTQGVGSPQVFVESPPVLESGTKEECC

This assay has as its target Envelope glycoprotein gp160 (Human immunodeficiency virus 1, UniProt Q6QLK5). Kind of assay: inhibitors of HIV fusion peptide binding, primary screen, biochemical, uHTS, fluorescence dequenching (AID 1986).
Consider `O=C(CCN1C(=O)/C(=C\C=C\c2ccccc2)SC1=S)Nc1ccccc1C(=O)O`, for which the IC50 was 20.2 µM (active). In the case of `O=C(O)c1cc(-c2ccc(-c3c(-c4ccc5c(c4)OCO5)noc3-c3ccsc3)cc2)nc2ccccc12`, the half-maximal inhibitory concentration (IC50) was 52.2 µM (active).

Consider `COc1cc(/C=C2/SC(=S)NC2=O)ccc1OS(=O)(=O)c1ccc(C)cc1`, for which the half-inhibitory concentration (IC50) is 16.5 µM (active). Consider `O=C(O)COc1ccccc1/C=N/Nc1ccc(S(=O)(=O)Nc2ccc(Cl)cc2)cc1[N+](=O)[O-]`, for which the IC50 was 19.6 µM (active). The value for `O=C(Nc1cc(S(=O)(=O)N2CCCCC2)ccc1Cl)c1ccccc1NS(=O)(=O)c1ccc(F)cc1` was 13.4 µM (active).
